Legend:
[1] = tested on: human pancreatic cancer cells MIA PACA-2; assay: Xenograft tumor model MIA PACA-2; assay type: in vivo, female athymic nude mice; settings: oral gavage; for Delta T/C % or Regr %: negative = regression
Protocol: (§1) The purpose of this assay is to measure reduction in tumor volume in response to test compound administration. Expand human colorectal cancer cells HCT116 (ATCC, # CCL-247) in culture, harvest and inject 5×10e^6 cells in 200 μL of 1:1 HBSS+matrigel solution subcutaneously on to the rear right flank of female athymic nude mice (22-25 g, Harlan Laboratories). Expand human pancreatic cancer cells MIA PACA-2 (ATCC, # CRL-1420) or human non-small cell lung cancer cells CALU-6 (ATCC, #HTB-56) or human colorectal cancer cells COLO-205 (ATCC, #CCL-222) in culture, harvest and inject 5×10e^6 cells in 200 μL of 1:1 HBSS+matrigel solution subcutaneously on to the rear right flank of female athymic nude mice (22-25 g, Harlan Laboratories). Measure tumor growth and body weight twice per week beginning the seventh day after the implantation. When tumor sizes reach 200-400 mm^3, randomize animals and group into groups of eight to ten animals. Prepare test compound in an appropriate vehicle (vehicle: 1% HEC/0.25% Tween 80/0.05% Antifoam) and administer by oral gavage for 14 to 21 days. Tumor response is determined by tumor volume measurement performed twice a week during the course of treatment. Body weight is taken as a general measure of toxicity.
(§2) A compound within the scope of invention is tested in this assay run substantially as above.

[2] = tested on: human non-small cell lung cancer cells CALU-6; assay: Xenograft tumor model CALU-6; assay type: in vivo, female athymic nude mice; settings: oral gavage; for Delta T/C % or Regr %: negative = regression
Protocol: as §1, §2

[3] = tested on: human colorectal cancer cells COLO-205; assay: Xenograft tumor model COLO-205; assay type: in vivo, female athymic nude mice; settings: oral gavage; for Delta T/C % or Regr %: negative = regression
Protocol: as §1, §2

ERK1 = molecular target: T1, ERK1 (Homo sapiens, UniProt P27361); assay: ERK1 Kinase Assay (TR-FRET); assay type: biochemical; settings: Abs_IC50, ATP 10 μM, GFP-ATF2 substrate; ±0.20, n=7
T1 construct: purchased Invitrogen PR5254B
Protocol: The purpose of this assay is to measure the ability of compounds to inhibit ERK1 kinase activity. Perform the ERK1 kinase assay in vitro using a TR-FRET assay. Start reactions (12.5 μL) by adding 5 μL of ERK1 enzyme (Invitrogen, #PR5254B, final concentration 100 ng/mL) plus substrate GFP-ATF2 (Invitrogen, #PV4445, final concentration 0.2 μM), 5 μL of ATP solution (Invitrogen, #PV3227, final concentration 10 μM) prepared in kinase buffer (50 mM Hepes pH 7.4, 5 mM MgCl2, 0.1 mM EGTA, 0.01% Triton X-100, 1 mM DTT) and 2.5 μL of testing compounds in DMSO solution (final 4%, v/v) in a 384-well PROXIPLATE™ (Perkin Elmer, #GRN6260). Incubate the reaction mixture at room temperature for 60 minutes. Stop the reaction by addition of 12.5 μL of stop buffer (10 mM EDTA, 2 nM Tb-anti-pATF2 (pThr71) antibody, Invitrogen, #PV4448) in TR-FRET dilution buffer (Invitrogen, #PV3574). Incubate the plates at room temperature for an additional 60 minutes and read on an ENVISION® (PerkinElmer) plate reader at the excitation wavelength 340 nm Calculate the TR-FRET ratio by dividing the GFP acceptor emission signal (at 520 nm) by the Tb donor emission signal (at 495 nm). Calculate percent inhibition using compound treated wells relative to on-plate Max (DMSO control) and Min (No enzyme added) control wells TR-FRET ratio data {% inhibition=100−[(test compound−median Min)/(median Max−median Min)×100]}. […]

[4] = tested on: human colorectal cancer cells HCT116; assay: In vivo combination study, HCT116 KRAS mutant colorectal cancer xenograft model; settings: oral, 28 days, single agent
Protocol: More specifically, the compound of Example 1 is tested in combination with either the pan-RAF inhibitor compound or the CDK4/6 inhibitor compound in HCT116, a KRAS mutant colorectal cancer xenograft model. Also, the compound of Example 1 is tested in combination with either the CDK4/6 inhibitor compound or DC101 in NCI-H441, A549, and NCI-H2122, KRAS mutant non-small cell lung cancer (NSCLC) xenograft models.
The HCT116 combination efficacy study is done in athymic nude rats. Expand human colorectal cancer cells HCT116 (ATCC, #CCL-247) in culture, harvest and inject 5×10e^6 cells in 200 μL of 1:1 HBSS+matrigel solution subcutaneously on to the rear right flank of female NIH nude rats (120-145 gm, Taconic Farms). Measure tumor growth and body weight twice per week beginning the seventh day after the implantation. When average tumor sizes reach 200-300 mm^3, randomize animals and group into groups of five to seven animals. Prepare test compound in an appropriate vehicle (see below) and administer by oral gavage for 21 to 28 days. Tumor response is determined by tumor volume measurement performed twice a week during the course of treatment. Vehicle used in this study is 1% HEC (hydroxy ethyl cellulose)/0.25% Tween® 80/0.05% Antifoam. The compound of Example 1 and the pan-RAF inhibitor compound are formulated in 1% HEC/0.25% Tween® 80/0.05% Antifoam. The CDK4/6 inhibitor compound is formulated in 1% HEC in 25 mM Sodium phosphate buffer, pH 2.

T1 sequence (P27361 whole entry): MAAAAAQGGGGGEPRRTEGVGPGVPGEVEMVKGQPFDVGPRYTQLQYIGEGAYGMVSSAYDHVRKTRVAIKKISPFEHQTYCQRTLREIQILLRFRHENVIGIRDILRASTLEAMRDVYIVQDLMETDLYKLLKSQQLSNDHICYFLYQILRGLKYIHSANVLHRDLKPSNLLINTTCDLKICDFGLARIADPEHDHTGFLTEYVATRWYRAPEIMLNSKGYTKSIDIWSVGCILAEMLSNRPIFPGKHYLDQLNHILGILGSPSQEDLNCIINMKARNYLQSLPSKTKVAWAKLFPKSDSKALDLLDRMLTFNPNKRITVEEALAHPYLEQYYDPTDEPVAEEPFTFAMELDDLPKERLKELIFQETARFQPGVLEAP

**Q.** What does the source list for `Cn1nccc1Nc1nccc(-c2cc3c(s2)C(C)(C)N(CCN2CCOCC2)C3=O)n1` [Example 1, 6,6-Dimethyl-2-{2-[(1-methyl-1H-pyrazol-5-yl)amino]pyrimidin-4-yl}-5-[2-(morpholin-4-yl)ethyl]-5,6-dihydro-4H-thieno[2,3-c]pyrrol-4-one]?
**A.** TGI % ([1]; 12.5 mg/kg QD): 68%; Delta T/C % or Regr % ([1]; 12.5 mg/kg QD): 32%; TGI % ([1]; 25 mg/kg QD): 98%; Delta T/C % or Regr % ([1]; 25 mg/kg QD): 2%; TGI % ([1]; 50 mg/kg QD): 122%; Delta T/C % or Regr % ([1]; 50 mg/kg QD): −22%; TGI % ([1]; 100 mg/kg QD): 166%; Delta T/C % or Regr % ([1]; 100 mg/kg QD): −66%; TGI % ([2]; 12.5 mg/kg QD): 78%; Delta T/C % or Regr % ([2]; 12.5 mg/kg QD): 22%; TGI % ([2]; 25 mg/kg QD): 86%; Delta T/C % or Regr % ([2]; 25 mg/kg QD): 14%; TGI % ([2]; 50 mg/kg QD): 131%; Delta T/C % or Regr % ([2]; 50 mg/kg QD): −31%; TGI % ([2]; 100 mg/kg QD): 177%; Delta T/C % or Regr % ([2]; 100 mg/kg QD): −77%; TGI % ([3]; 12.5 mg/kg QD): 119%; Delta T/C % or Regr % ([3]; 12.5 mg/kg QD): −19%; TGI % ([3]; 25 mg/kg QD): 132%; Delta T/C % or Regr % ([3]; 25 mg/kg QD): −32%; TGI % ([3]; 100 mg/kg QD): 176%; Delta T/C % or Regr % ([3]; 100 mg/kg QD): −76%; IC50 (ERK1): 4.86 nM; Delta T/C % ([4]; 10 mg/kg QD): 48%; TGI % ([4]; 10 mg/kg QD): 52%; Delta T/C % ([4]; 20 mg/kg QD): 36%; TGI % ([4]; 20 mg/kg QD): 64%
